Test results published in US8017350B2, “Glimepiride- and insulin-induced glycosylphosphatidylinositol-specific phospholipase C regulation” (Sanofi-Aventis Deutschland GmbH, priority 2004, dated 2011).
Like-named read-outs stand apart in the source and are kept apart here.

Assays:
[1] = stability of compound 3; type: physicochemical
[2] = test system: trypanosomal GPI-PLC (T. brucei); details: literature; cited from earlier work
[3] = test system: GPI-proteins 5′-Nuc, Gce1 and aP in isolated rat adipocytes; assay: localization of lipolytically cleaved and uncleaved GPI-proteins at hcDIGs, IcDIGs and total plasma membranes (TX-114 partitioning); type: cell-based; details: GPI-2350 50 μM, insulin 10 nM, glimepiride 20 μM; for 5′-Nuc amphiph IcDIGs / 5′-Nuc hydroph. IcDIGs / 5′-Nuc hydroph. hcDIGs / Gce1 amphiph IcDIGs / Gce1 hydroph. IcDIGs / Gce1 hydroph. hcDIGs / aP amphiph IcDIGs / aP hydroph. IcDIGs / aP hydroph. hcDIGs: amphiphilic version in hcDIGs of basal adipocytes set at 100; for 5′-Nuc hydroph. PM / Gce1 hydroph. PM / aP hydroph. PM: amphiphilic version in total plasma membranes of basal adipocytes set at 100; for 5′-Nuc amphiph hcDIGs / Gce1 amphiph hcDIGs / aP amphiph hcDIGs: basal set at 100
[4] = test system: pp59Lyn and Gce1 interaction with caveolin-1 in rat adipocytes; assay: dissociation of signaling proteins from caveolin (caveolin-1 immunoprecipitates of hcDIGs); type: cell-based; details: solubilized hcDIGs; FIG. 6
Description: Solubilized DIGs (see above, 5-20 μg protein) were precleared by incubation with protein A/G-Sepharose and subsequent centrifugation (10,000×g, 5 min). The supernatant was incubated with anti-caveolin-1 antibodies (1:1000) preadsorbed on protein A/G-Sepharose in 1 ml of 10 mM Tris/HCl (pH 7.4), 150 mM NaCl, 1% TX-100 for 1 h at 4° C. The immune complexes were washed twice with the same buffer and then twice with buffer lacking TX-100 and finally subjected to SDS-PAGE performed in the absence of β-mercaptoethanol. The recovery of immunoprecipitated caveolin was normalized by homologous immunoblotting with anti-caveolin antibodies of the same blot following stripping of the membrane.
Polypeptides separated by SDS-PAGE were transferred to polyvinylidene difluoride membranes using the semidry procedure as described in “Müller, G. et al., (2001) Mol. Cell. Biol. 21: 4553-4567”. Washed membranes were incubated with anti-caveolin-1 (1:2000), anti-pp59^Lyn (1:1250), anti-aP (1:500), anti-5′-Nuc (1:750) and anti-IRS-1 (1:2000) antibodies for 4 h at 15° C. Washed membranes were incubated with horseradish peroxidase-coupled secondary goat anti-mouse (1:2000) or goat anti-rabbit IgG (1:4000) antibodies. Labeled proteins were visualized by enhanced chemiluminescence.
FIG. 6: Effect of GPI-2350 on the glimepiride/insulin-induced dissociation of signaling proteins from caveolin. Isolated rat adipocytes were treated (5 min, 37° C.) without or with GPI-2350 (left panels, 50 μM; right panels, increasing conc.) and then incubated (120 min, 37° C.) in the absence or presence of insulin (10 nM) or glimepiride (20 μM). hcDIGs were prepared from the adipocytes and then solubilized. Caveolin-1 immunoprecipitates prepared from the solubilized hcDIGs were assayed for the presence of pp59^Lyn and Gce1 by immunoblotting and photoaffinity-labeling, respectively. […]

[5] = test system: isolated rat adipocytes; assay: isoproterenol-induced lipolysis measured as release of NBD-FA; type: cell-based
Description: Electroporation was performed as described in “Müller, G. et al., (2000) Mol. Cell. Biol. 20: 4708-4723”. Lipolysis was determined as release of glycerol or fluorescent NBD-FA from prelabeled and isoproterenol-stimulated adipocytes as described in “Müller, G. et al., (2003) Biochimie 85: 1245-1256”. Gce1 was detected by photolabeling of solubilized plasma membranes or hc/lcDIGs (10-50 μg protein) with 8-N3—[^32P]cAMP and subsequent phosphorimaging as described in “Müller, G. et al., (1994) Biochemistry 33: 12149-12159”. 5′-Nuc, aP and AChE activities were measured according to “Eliakim, R. et al., (1990) Biochim. Biophys. Acta 1355: 293-302”. Protein was determined using the BCA protein determination kit from Pierce (Rockford, Ill.) and BSA as calibration standard. SDS-PAGE was performed using precast gels (Novex, San Diego, Calif.; 10% Bis-Tris resolving gel, morpholinopropanesulfonic acid-SDS running buffer). Lumiimages were evaluated on a LumiImager using LumiImager software (Roche Diagnostics). Phosphor- and fluorescence images were processed and quantified using the Storm 860 PhosphorImager system (Molecular Dynamics, Gelsenkirchen, Germany). Figures were constructed using the ADOBE PHOTOSHOP software (Adobe Systems, Mountain View, Calif.).
FIG. 9: Isolated rat adipocytes were labeled with 0.5 mM NBD-FA (60 min, 37° C.), washed and then incubated (5 min, 37° C.) in the absence (Panels B, D) or presence of GPI-2350 (50 μM; Panels A, C) prior to challenge with increasing concentrations of glimepiride (Panels A, B) or insulin (Panels C, D). After further incubation (120 min, 37° C.) without or with isoproterenol (1 μM) as indicated, total cell suspensions were extracted with chloroform/heptane/methanol/0.1 N HCl (3/3/2/1, by vol.). The organic phases were analyzed by thin layer chromatography (diethylether/petrolether/acetic acid 78/22/1, by vol.) and fluorescence imaging in parallel with NBD-FA as marker. A typical experiment with 2 independent labelings and incubations is shown repeated once with similar results. TAG, triacylglycerol.

[6] = cited from earlier work

Compound	inhibition in words [2]	5′-Nuc amphiph IcDIGs [3] [arb. units]	5′-Nuc hydroph. IcDIGs [3] [arb. units]	5′-Nuc hydroph. hcDIGs [3] [arb. units]	Gce1 amphiph IcDIGs [3] [arb. units]	Gce1 hydroph. IcDIGs [3] [arb. units]	Gce1 hydroph. hcDIGs [3] [arb. units]	aP amphiph IcDIGs [3] [arb. units]	aP hydroph. IcDIGs [3] [arb. units]	aP hydroph. hcDIGs [3] [arb. units]	5′-Nuc hydroph. PM [3] [arb. units]	Gce1 hydroph. PM [3] [arb. units]	aP hydroph. PM [3] [arb. units]	5′-Nuc amphiph hcDIGs [3] [arb. units]	Gce1 amphiph hcDIGs [3] [arb. units]	aP amphiph hcDIGs [3] [arb. units]	induced maximal losses of pp59Lyn and Gce1 from caveolin-1 immunoprecipitates [4]	other results
CCCCCCCCCCCCP1(=O)OC2C(O)C(O)C(O)C(O)C2O1 (racemic) [GPI-2350, myo-inositol-1,2-cyclo-dodecylphosphonic acid]	–	–	–	–	–	–	–	–	–	–	–	–	–	–	–	–	–	stability as dried amorphous solid ([1]; 4° C.): dried amorphous solid for years; stability in methanol ([1]; methanol): stable in methanol for days
CCCCCCCCCCCCP(=O)(O)O[C@@H]1[C@H](O)[C@H](O)[C@@H](O)[C@H](O)[C@H]1O[C@H]1O[C@H](CO)[C@@H](O)[C@H](O)[C@H]1N [GMI-1-dodecylphosphonate]	considerably more inhibitory than the corresponding hexyl derivative	–	–	–	–	–	–	–	–	–	–	–	–	–	–	–	–	–
CCC1=C(C)CN(C(=O)NCCc2ccc(S(=O)(=O)NC(=O)N[C@H]3CC[C@H](C)CC3)cc2)C1=O [Glimepiride, glimepiride]	–	59 ± 9	9 ± 3	48 ± 10	79 ± 15	12 ± 5	69 ± 9	49 ± 8	10 ± 2	88 ± 19	19 ± 5	40 ± 11	54 ± 12	35 ± 10	25 ± 10	10 ± 3	75-85%	IC50 ([5]; Rattus norvegicus, Adipocyte, isoproterenol-induced adipocytes, FIG. 9, read-out: IC50 for reduction of NBD-FA release): 3 µM; reduction of NBD-FA release in the presence of inhibitor ([5]; in the presence of 50 μM glimepiride (so in the source), Panels A, B): completely abrogated; time of greatest blood glucose lowering effects after the dose ([6]; human, in vivo): ≤ 4 h; hypoglycaemia, patients ([6]; receiving concomitant insulin for 6 months): ≤ 50%
N[C@H]1[C@@H](O[C@@H]2[C@@H](O)[C@H](O)[C@@H](O)[C@H]3OP(=O)(O)O[C@H]32)O[C@H](CO)[C@@H](O)[C@@H]1O [glucosamine (α1→6)-inositol-1,2-cyclic phosphate]	better inhibitor than GMI-1-phosphate	–	–	–	–	–	–	–	–	–	–	–	–	–	–	–	–	–
CCCCCCCCCCCCOP(=O)(O)OC1C(O)C(O)C(O)C(O)C1O (stereo not shown) [myo-inositol-1-O-dodecylphosphate]	inhibit the trypanosomal GPI-PLC	–	–	–	–	–	–	–	–	–	–	–	–	–	–	–	–	–
Insulin: Human recombinant insulin	–	28 ± 4	7 ± 2	34 ± 8	35 ± 9	19 ± 5	58 ± 12	27 ± 5	4 ± 2	69 ± 8	14 ± 5	29 ± 7	31 ± 6	81 ± 17	64 ± 8	44 ± 7	35-45%	IC50 ([5]; absence of GPI-2350, read-out: apparent IC50 for inhibition of NBD-FA release): 0.1 µM; IC50 ([5]; presence of GPI-2350 (50 μM), read-out: apparent IC50 for inhibition of NBD-FA release): 0.3 µM
